Assay results published in patent US20030224390A1, “Method of identifying conformation-sensitive binding peptides and uses thereof” (Karo Bio AB, priority 2000, published 2003).

Key:
ERβ = ERβ (Homo sapiens, UniProt Q92731); test: Binding of the peptide probes to ERβ in the presence of modulators (Table 15b)
androgen receptor [1] = target: T1, androgen receptor (Homo sapiens, UniProt P10275); type: cell-based; set-up: expressed in transfected cells; conditions: for luciferase normalized to β-galactosidase, DHT / luciferase normalized to β-galactosidase, MPA / luciferase normalized to β-galactosidase, RU486 / luciferase normalized to β-galactosidase, no compound: mammalian two-hybrid, Huh-7 cells; for luciferase normalized to β-galactosidase, DHT: ligand DHT; for luciferase normalized to β-galactosidase, MPA: ligand MPA; for luciferase normalized to β-galactosidase, RU486: ligand RU486
T1 sequence (P10275 1-920): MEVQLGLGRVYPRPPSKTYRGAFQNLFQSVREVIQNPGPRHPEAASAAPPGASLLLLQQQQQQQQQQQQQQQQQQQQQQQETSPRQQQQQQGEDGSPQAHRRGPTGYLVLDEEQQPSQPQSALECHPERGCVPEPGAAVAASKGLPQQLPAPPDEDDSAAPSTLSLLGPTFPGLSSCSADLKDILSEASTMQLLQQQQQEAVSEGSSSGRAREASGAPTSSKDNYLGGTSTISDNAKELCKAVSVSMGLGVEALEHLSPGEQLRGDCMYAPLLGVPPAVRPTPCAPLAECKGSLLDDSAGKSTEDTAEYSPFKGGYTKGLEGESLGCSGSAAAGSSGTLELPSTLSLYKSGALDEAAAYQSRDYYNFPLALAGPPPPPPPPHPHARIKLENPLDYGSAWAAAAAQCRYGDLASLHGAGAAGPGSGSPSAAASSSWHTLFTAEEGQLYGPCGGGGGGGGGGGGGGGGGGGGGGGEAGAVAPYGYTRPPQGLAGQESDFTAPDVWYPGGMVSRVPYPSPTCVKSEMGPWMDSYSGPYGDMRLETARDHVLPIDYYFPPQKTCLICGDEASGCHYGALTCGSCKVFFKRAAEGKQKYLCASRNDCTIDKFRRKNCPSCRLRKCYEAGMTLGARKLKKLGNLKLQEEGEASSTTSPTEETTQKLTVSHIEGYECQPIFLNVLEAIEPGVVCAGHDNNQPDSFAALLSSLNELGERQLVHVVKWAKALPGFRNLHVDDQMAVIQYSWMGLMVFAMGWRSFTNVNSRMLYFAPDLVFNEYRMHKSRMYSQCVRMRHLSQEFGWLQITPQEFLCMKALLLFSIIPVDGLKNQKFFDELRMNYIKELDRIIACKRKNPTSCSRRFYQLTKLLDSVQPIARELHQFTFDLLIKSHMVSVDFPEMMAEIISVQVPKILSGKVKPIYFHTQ
Description: We used a mammalian two-hybrid system to determine specificities of the AR-binding peptides previously identified, through screening of the aforementioned yeast library, as ligand-dependent in their binding activity. Ligand was provided to the cells so the interaction could be observed. The human hepatoma cell line, Huh-7, was used as the recipient of two-hybrid vectors, pM and pVP16 (Clontech) (FIGS. 6A and 6B), containing fusions with peptide and AR, respectively. According to Clontech literature, the Clontech vectors pM and VP16 generate fusions of protein X with the GAL4 DNA-BD and fusions of protein Y with the VP16AD, in the Mammalian MM Two-Hybrid Assay Kit (#K1602-1). (Note: pM and VP16 contain unique cloning sites in the same order and reading frame as the DNA-BD and AD, respectively, vectors in the yeast […] Two-Hybrid Systems.) A third vector, pG5CAT, provides a CAT reporter gene under the control of a GAL4-responsive element and minimal promoter of the adenovirus E1b. The three vectors are cotransfected into any suitable mammalian host cell line by standard methods. The interaction between proteins X and Y is then assayed by measuring CAT gene expression by any standard method. In the absence of activation (i.e., no protein-protein interaction), the minimal E1b promoter will not express significant levels of CAT.
Briefly, cells are seeded in a 24-well culture plate to a density of 50-80% confluence in phenol red-free media containing charcoal-dextran stripped fetal bovine serum (10%). Following incubation overnight, cells are transfected with plasmids pM-peptide, pVP16-AR, pCMV-b-gal, and p5XGAL-Luc3 DNAs using lipofectamine 2000 (LifeTech) according to the manufacturer's protocol. Transfections are allowed to proceed for 6 hours and the transfection media is aspirated and replaced with recovery media for 18 hours. Following the recovery period, cells are treated with compound for 24 hours prior to cell harvesting. Cells are washed with PBS and then lysed using the lysis buffer from the Galacto-Light Plus β-galactosidase assay kit (Tropix). Assays for luciferase and β-galactosidase were performed as described by the manufacturer. Peptide/AR interactions are described in terms of the luciferase activity normalized for transfection efficiency using β-galactosidase activity (see FIG. 4A). Two types of useful information arose from these methods: 1) we generated a panel of useful peptide probes to analyze the conformational state of AR, and 2) we “fingerprinted” AR modulators with respect to AR conformation (FIG. 4B). […] FIG. 4B is the converse of 4A. It compares the ability of six ligands (DHT, MPA, CYP, RU486, FLUT and DHEAs to interact with AR in the presence of each of four peptides (D30, 5G11, B8H3 and […]). Thus, it is a “fingerprint” of each of the six ligands using a four peptide panel. (Note that “1269” and D30” refer to the same peptide.)

androgen receptor [2] = target: T1, androgen receptor; test: Yeast two-hybrid screening of unbiased X15 peptide library, ligand induced β-galactosidase activity (FIG. 3, Table 503); type: cell-based; set-up: expressed in transfected cells; host or cells: Saccharomyces cerevisiae PJ69-4α; ligand induced β-galactosidase activity, No Lig / ligand induced β-galactosidase activity, DHT / ligand induced β-galactosidase activity, CPA / ligand induced β-galactosidase activity, RU / ligand induced β-galactosidase activity, Test / ligand induced β-galactosidase activity, MPA: unit not given here; conditions: for ligand induced β-galactosidase activity, CPA / ligand induced β-galactosidase activity, DHT / ligand induced β-galactosidase activity, RU / ligand induced β-galactosidase activity, No Lig: yeast two-hybrid
Description: Our library contained predominantly 15 random amino acid residues/peptide in order to identify motifs that might interact with nuclear receptor domains. If ligand is provided to the cells, one can screen for peptides that interact with the ligand-bound receptor. […] Included at the ends of the oligonucleotide were the synthetic restriction endonuclease cleavage sites, EcoRI or Mfe I (5′ end) and Sal I (3′ end). Oligonucleotides were annealed, then cleaved with excess restriction endonuclease and purified on agarose gels. The purified set of oligonucleotides was subcloned as an in-frame carboxy-terminal fusion to a Gal4 DNA binding domain (plasmid vector pMA424 derivative). […] The transformation mix was divided and grown on plates of selective media containing ligand and 25 mM 3-aminotriazole at 30° C. until colonies appeared in 3-7 days. […] Dihydrotestosterone (DHT) and medroxyprogesterone (MPA) were added to the media at 100 nM to identify peptides that interact with the receptor in the presence of ligand. After colonies appeared they were picked and dispersed into individual wells of a 96-well plate containing rich media (YPD).
To determine ligand dependence, two microliter aliquots were removed from the cell suspension, and arrayed and spotted onto each of two rectangular agar plates, one with 100 nM ligand and one without ligand. Growth was monitored daily.
A secondary test of ligand dependent activation was performed using the integrated GAL4-driven lacZ gene. Cell suspensions of the initial positive clones were diluted 20-fold into 20 microliters of rich media in a microplate and grown overnight at 30° C. in the presence and absence of ligand. Microplates were centrifuged for 5 minutes at 3000 rpm in a swinging table top centrifuge to pellet the yeast cells, and the overlying media was aspirated. […] An OD650 density determination was made to normalize the β-galactosidase activity. β-galactosidase activity was monitored following the addition of buffer containing chlorophenol red-β-galactopyranoside (CPRG) (Boehringer Mannheim) substrate at a final concentration of 0.5 mM. […] The maximum slope value of this measurement was normalized to cell density from the initial OD650 value, and the relative ligand dependence of β-galactosidase was determined by comparing the values plus and minus ligand.
In FIG. 3, all of these ligands were tested. The plasmids from true positives were extracted using standard yeast extraction protocols and re-transformed to verify the positive phenotype.

Sequence of ERβ (Q92731 whole entry, species assumed): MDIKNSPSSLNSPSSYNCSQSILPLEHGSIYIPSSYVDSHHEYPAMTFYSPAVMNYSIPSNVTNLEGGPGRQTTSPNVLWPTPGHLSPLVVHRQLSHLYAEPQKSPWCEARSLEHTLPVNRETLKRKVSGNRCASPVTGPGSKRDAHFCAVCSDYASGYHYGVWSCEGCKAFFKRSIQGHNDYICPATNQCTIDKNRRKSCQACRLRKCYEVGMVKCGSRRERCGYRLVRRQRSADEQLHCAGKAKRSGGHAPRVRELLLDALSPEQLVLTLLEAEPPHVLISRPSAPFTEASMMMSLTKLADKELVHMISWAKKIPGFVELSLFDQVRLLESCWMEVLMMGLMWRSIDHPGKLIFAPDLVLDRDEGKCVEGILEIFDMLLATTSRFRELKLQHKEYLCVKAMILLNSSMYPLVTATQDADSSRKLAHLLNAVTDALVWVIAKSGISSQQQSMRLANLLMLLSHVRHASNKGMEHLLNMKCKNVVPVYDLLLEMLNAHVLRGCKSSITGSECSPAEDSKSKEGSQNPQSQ

Equiv. (equivalency), peptide probe α/βIII on ERβ (ERβ; probe α/βIII) [%] | Equiv. (equivalency), peptide probe α/βIV on ERβ (ERβ; probe α/βIV) [%] | Equiv. (equivalency), peptide probe α/βV on ERβ (ERβ; probe α/βV) [%] | Equiv. (equivalency), peptide probe βI on ERβ (ERβ; probe βI) [%] | Equiv. (equivalency), peptide probe βIII on ERβ (ERβ; probe βIII) [%] | luciferase normalized to β-galactosidase, CYP. (androgen receptor [1]) | luciferase normalized to β-galactosidase, DHT (androgen receptor [1]) | luciferase normalized to β-galactosidase, MPA (androgen receptor [1]) | luciferase normalized to β-galactosidase, RU486 (androgen receptor [1]) | luciferase normalized to β-galactosidase, no compound (androgen receptor [1]) | ligand induced β-galactosidase activity, CPA (androgen receptor [2]) | ligand induced β-galactosidase activity, DHT (androgen receptor [2]) | ligand induced β-galactosidase activity, RU (androgen receptor [2]) | ligand induced β-galactosidase activity, No Lig (androgen receptor [2]) | Fold induction (androgen receptor [2]; untitled table before Table 503, values match DHT / No Lig of Table 503) | Molecule
77 | 0 | 0 | −53 | −71 | – | – | – | – | – | – | – | – | – | – | O=C(c1ccc(OCCN2CCCCC2)cc1)c1c(-c2ccc(O)cc2)sc2cc(O)ccc12 [Raloxifene]
– | – | – | – | – | 4.462 | 15.84 | 8.029 | 0.1051 | 0.05028 | 0.9726 | 3.964 | 0.9 | 0.6382 | – | EFRSSVFEQMYLCTGGSLDLQPS* [B5G11]
– | – | – | – | – | 10.47 | 11.6 | 11.33 | 3.879 | 0.1316 | 0.3927 | 3.807 | −0.0 | 0.1737 | 22 | EFHSRLRVEVVSWGIGSTCSQANSGRISYDL* [B8H3]
